Patent US9714249B2 (Novartis AG, priority 2013, dated 2017)

Columns and labels:
K-562 cells = assay: Cell growth inhibition assay (CellTiter-Glo), K-562; assay type: cell-based, human; conditions: K-562, 4 days; for GI50: half-maximal growth inhibition; for K-562 TGI: total growth inhibition
Description: The human leukemia cell lines MV-4-11, THP-1 and K-562 were employed to characterize the effect of BET inhibitors on cellular proliferation and viability. Cells were obtained from the American Type Culture Collection (ATCC) and cultured at 37° C. in a humidified 5% CO2 incubator in the following media: MV-4-11: DMEM high glucose (Animed #1-26F01-I), 10% FCS (Animed #2-01F26-I), 4 mM L-Glutamine (Animed #5-10K50), 1 mM Sodium Pyruvate (Animed # G03625P), 1× Penicillin-Streptomycin (Animed # F12478P); K-562: Iscove's MEM (Animed #1-28F16-I), 10% FCS (Animed #2-01F26-I), 4 mM L-Glutamine (Animed #5-10K50), 1× Penicillin-Streptomycin (Animed # F12478P); THP-1: RPMI-1640 (Animed #1-41F01-I), 10% FCS (Animed #2-01F26-I), 2 mM L-Glutamine (Animed #5-10K50), 10 mM HEPES (Animed #5-31F100), 1 mM Sodium Pyruvate (Animed # G03625P), 1× Penicillin-Streptomycin (Animed # F12478P). The AML lines MV-4-11 and THP-1 are very sensitive to BET inhibitors and show massive cell death upon BET inhibition (Zuber et al., Nature, 478 (2011), 524-8). Compound-mediated suppression of cell proliferation/viability was assessed by quantification of cellular ATP levels using the CellTiter-Glo (CTG) reagent (Promega). Briefly, cells were seeded in 20 μl fresh medium into 384-well plates, followed by addition of 5 μl medium containing compound dilutions at 5-fold their final intended concentration. Dose-response effects were assessed by 3-fold serial dilutions of the test compound, starting at 10 μM. Following incubation of the cells for 4 days at 37° C. and 5% CO2, the effect of inhibitors on cell viability was quantified following addition of 20 μl CTG and luminescence quantification (integration time: 100 ms) as per vendor manual, using a correspondingly equipped Tecan M200 multi-mode platereader (TECAN, Switzerland). For data analysis, the assay background value determined in wells containing medium, but no cells, was subtracted from all data points. To enable differentiation of cytotoxic from cytostatic compounds, the number of viable cells is assessed relative to that observed at the time of compound addition using a separate cell plate (day 0). The effect of a particular test compound concentration on cell proliferation/viability is expressed as percentage of the background- and day 0-corrected luminescence reading obtained for cells treated with vehicle only (DMSO, 0.1% final concentration), which is set as 100%, whereas that luminescence reading for wells containing medium is set as −100%. Compound concentrations leading to half-maximal (1050) and total growth inhibition (TGI) were determined using standard four parameter curve fitting.

BRD2 (His-Brd2(60-472)) = BRD2 (His-Brd2(60-472)) (Homo sapiens (Human), UniProt P25440); assay: TR-FRET in-vitro binding assay for BRD2; conditions: acetyl-histone H4 peptide
BRD2 (His-Brd2(60-472)), sequence (P25440 60-472, species assumed): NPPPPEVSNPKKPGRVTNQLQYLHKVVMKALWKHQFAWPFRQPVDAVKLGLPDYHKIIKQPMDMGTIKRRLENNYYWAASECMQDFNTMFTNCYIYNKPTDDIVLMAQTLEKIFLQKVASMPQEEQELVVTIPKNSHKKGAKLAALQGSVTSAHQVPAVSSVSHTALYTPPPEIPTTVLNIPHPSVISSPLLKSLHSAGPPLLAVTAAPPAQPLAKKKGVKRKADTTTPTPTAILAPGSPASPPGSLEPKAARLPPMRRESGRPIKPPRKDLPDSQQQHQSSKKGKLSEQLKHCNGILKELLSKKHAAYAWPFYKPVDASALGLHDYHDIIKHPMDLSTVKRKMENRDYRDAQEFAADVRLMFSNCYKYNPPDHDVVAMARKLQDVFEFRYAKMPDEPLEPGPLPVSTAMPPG
Description: All assays were performed in 384 well microtiter plates. Each assay plate contained 8-point serial dilutions for 40 test compounds, plus 16 high- and 16 low controls. Liquid handling and incubation steps were done on an Innovadyne Nanodrop Express equipped with a robotic arm (Thermo CatX, Perkin Elmer/Caliper Twister II) and an incubator (Liconic STX40, Thermo Cytomat 2C450). The assay plates were prepared by addition of 50 nl per well of compound solution in 90% DMSO HummingBird nanodispenser (Zinsser Analytic). The assay was started by stepwise addition of 4.5 μl per well of bromo domain protein (50 mM HEPES, pH 7.5, 0.005% Tween20, 0.1% BSA, 50 mM NaCl, 45 nM His-Brd2(60-472) or 45 nM His-Brd3(20-477) or 45 nM His-Brd4(44-477) all proteins produced in-house) and 4.5 μl per well of peptide solution (50 mM HEPES, pH 7.5, 0.005% Tween20, 0.1% BSA, 50 mM NaCl, 60 nM acetyl-histone H4 (AcK 5, 8, 12, 16) (Biosyntan GmbH)). Reactions were incubated at 30° C. for 35 minutes. Subsequently 4.5 μl per well detection mix (50 mM HEPES, pH 7.5, 0.005% Tween20, 0.1% BSA, 50 mM NaCl, 3 nM Eu-labeled anti-His6 antibody, 21 nM streptavidin-allophycocyanin) were added. After 35 minutes incubation at 30° C., plates were measured in a Perkin Elmer EnVision multilabel reader. Concentrations causing 50% inhibition (1050) values were determined from percent inhibition values at different compound concentrations by non-linear regression analysis.
Test compounds were dissolved in DMSO (10 mM) and transferred into 1.4 mL flat bottom or V-shaped Matrix tubes carrying a unique 2D matrix. The stock solutions were stored at […] if not used immediately. For the test procedure the vials were defrosted and identified by a scanner whereby a working sheet was generated that guided the subsequent working steps. Compound dilutions were made in 96 well plates. This format enabled the assay of maximally 40 individual test compounds at 8 concentrations (single points) including 4 reference compounds, if desired (known BET inhibitors from the prior art, for this and other assays of the type disclosed herein). The dilution protocol included the production of “pre-dilution plates”, “master plates” and “assay plates”.
Pre-dilution plates: 96 polypropylene well plates were used as pre-dilution plates. A total of 4 pre-dilution plates were prepared including 10 test compounds each on the plate positions A1-A10, one standard compound at A11 and one DMSO control at A12. All dilution steps were done on a HamiltonSTAR robot. Master plates: 30 μL of individual compound dilutions including standard compound and controls of the 4 “pre-dilution plates” were transferred into a 384 “master plate” including the following concentrations 10000, 3003, 1000, 300, 100, 30, 10 and 3 μM, respectively in 90% of DMSO. Assay plates: Identical “assay plates” were then prepared by pipetting 50 nL each of compound dilutions of the “master plates” into 384-well “assay plates” by means of a HummingBird 384-channel dispenser. These plates were used directly for the assay which was performed in a total volume of 13.55 μL. This led to a final compound concentration of 37, 11, 3.7, 1.1, 0.37, 0.11, 0.037 and 0.011 μM and a final DMSO concentration of 0.37% in the assay. Cell Growth Inhibition Assay

GI50 (K-562 cells; Homo sapiens, K562, 96 h) [nM] | IC50 (BRD2 (His-Brd2(60-472))) [nM] | Compound | K-562 TGI (K-562 cells) [nM] | GI50 (K-562 cells) [nM]
141 | 32 | Cc1cc(N2C(=O)c3c(C4CC4)nn(C)c3C2c2ccc(Cl)cc2)cn(C)c1=O (stereo not drawn) [Example 1, 6-(4-chlorophenyl)-3-cyclopropyl-5-(1,5-dimethyl-6-oxo-1,6-dihydropyridin-3-yl)-1-methyl-5,6-dihydropyrrolo[3,4-c]pyrazol-4(1H)-one] | >10000 | –
615 | 94 | COc1ncc(-n2nc3c(c2C)C(=O)N(c2cc(C)c(=O)n(C)c2)C3c2ccc(Cl)cc2)c(OC)n1 (stereo not drawn) [Example 14, 6-(4-chlorophenyl)-2-(2,4-dimethoxypyrimidin-5-yl)-5-(1,5-dimethyl-6-oxo-1,6-dihydropyridin-3-yl)-3-methyl-5,6-dihydropyrrolo[3,4-c]pyrazol-4(2H)-one] | >10000 | –
318 | 170 | Cc1[nH]nc2c1C(=O)N(c1cc(Cl)c(=O)n(C)c1)[C@@H]2c1ccc(Cl)cc1 [Example 28, (R)-5-(5-chloro-1-methyl-6-oxo-1,6-dihydropyridin-3-yl)-6-(4-chlorophenyl)-3-methyl-5,6-dihydropyrrolo[3,4-c]pyrazol-4(2H)-one] | >10000 | –
109 | 15 | COCCn1nc(C2CC2)c2c1C(c1ccc(Cl)cc1)N(c1cc(C)c(=O)n(C)c1)C2=O (stereo not drawn) [Example 4, 6-(4-chlorophenyl)-3-cyclopropyl-5-(1,5-dimethyl-6-oxo-1,6-dihydropyridin-3-yl)-1-(2-methoxyethyl)-5,6-dihydropyrrolo[3,4-c]pyrazol-4(1H)-one] | >10000 | –
154 | 53 | COc1ncccc1-n1nc2c(c1C)C(=O)N(c1cc(C)c(=O)n(C)c1)C2c1ccc(Cl)cc1 (stereo not drawn) [Example 17b, 6-(4-chlorophenyl)-5-(1,5-dimethyl-6-oxo-1,6-dihydropyridin-3-yl)-2-(2-methoxypyridin-3-yl)-3-methyl-5,6-dihydropyrrolo[3,4-c]pyrazol-4(2H)-one] | >10000 | –
278 | 160 | Cc1cc(N2C(=O)c3c(C4CC4)nn(-c4ccnn4C)c3[C@H]2c2ccc(Cl)cc2)cn(C)c1=O [Example 22, (R)-6-(4-chlorophenyl)-3-cyclopropyl-5-(1,5-dimethyl-6-oxo-1,6-dihydropyridin-3-yl)-1-(1-methyl-1H-pyrazol-5-yl)-5,6-dihydropyrrolo[3,4-c]pyrazol-4(1H)-one] | >10000 | –
658 | 74 | Cc1cc(N2C(=O)c3c(C4CC4)nn(-c4ccnn4C)c3C2c2ccc(Cl)cc2)cn(C)c1=O (stereo not drawn) [Example 5, 6-(4-chlorophenyl)-3-cyclopropyl-5-(1,5-dimethyl-6-oxo-1,6-dihydropyridin-3-yl)-1-(1-methyl-1H-pyrazol-5-yl)-5,6-dihydropyrrolo[3,4-c]pyrazol-4(1H)-one] | >10000 | –
268 | 42 | Cc1cc(N2C(=O)c3c(C4CC4)nn(CCO)c3C2c2ccc(Cl)cc2)cn(C)c1=O (stereo not drawn) [Example 3, 6-(4-chlorophenyl)-3-cyclopropyl-5-(1,5-dimethyl-6-oxo-1,6-dihydropyridin-3-yl)-1-(2-hydroxyethyl)-5,6-dihydropyrrolo[3,4-c]pyrazol-4(1H)-one] | >10000 | –
149 | 35 | CCOc1ncccc1-n1nc2c(c1C)C(=O)N(c1cc(C)c(=O)n(C)c1)C2c1ccc(Cl)cc1 (stereo not drawn) [Example 18b, 6-(4-chlorophenyl)-5-(1,5-dimethyl-6-oxo-1,6-dihydropyridin-3-yl)-2-(2-ethoxypyridin-3-yl)-3-methyl-5,6-dihydropyrrolo[3,4-c]pyrazol-4(2H)-one] | >10000 | –
193 | 52 | Cc1nn(C(C)C)c2c1C(=O)N(c1cc(C)c(=O)n(C)c1)C2c1ccc(Cl)cc1 (stereo not drawn) [Example 12, 6-(4-chlorophenyl)-5-(1,5-dimethyl-6-oxo-1,6-dihydropyridin-3-yl)-1-isopropyl-3-methyl-5,6-dihydropyrrolo[3,4-c]pyrazol-4(1H)-one] | >10000 | –
103 | 74 | Cc1cc(N2C(=O)c3c(C4CC4)n[nH]c3[C@H]2c2ccc(Cl)cc2)cn(C)c1=O [Example 24, (R)-6-(4-chlorophenyl)-3-cyclopropyl-5-(1,5-dimethyl-6-oxo-1,6-dihydropyridin-3-yl)-5,6-dihydropyrrolo[3,4-c]pyrazol-4(1H)-one] | >10000 | –
404 | 63 | COc1ncc(-n2nc(C)c3c2C(c2ccc(Cl)cc2)N(c2cc(C)c(=O)n(C)c2)C3=O)cn1 (stereo not drawn) [Example 21a, 6-(4-chlorophenyl)-5-(1,5-dimethyl-6-oxo-1,6-dihydropyridin-3-yl)-1-(2-methoxypyrimidin-5-yl)-3-methyl-5,6-dihydropyrrolo[3,4-c]pyrazol-4(1H)-one] | >10000 | –
236 | 61 | COc1ccc(-n2nc3c(c2C)C(=O)N(c2cc(C)c(=O)n(C)c2)C3c2ccc(Cl)cc2)cn1 (stereo not drawn) [Example 20a, 6-(4-chlorophenyl)-5-(1,5-dimethyl-6-oxo-1,6-dihydropyridin-3-yl)-2-(6-methoxypyridin-3-yl)-3-methyl-5,6-dihydropyrrolo[3,4-c]pyrazol-4(2H)-one] | >10000 | –

Compound | GI50 (K-562 cells; Homo sapiens, K562, 96 h) [nM] | IC50 (BRD2 (His-Brd2(60-472))) [nM] | K-562 TGI (K-562 cells) [nM] | GI50 (K-562 cells) [nM]
CNC1=C(C(=N)C2CC2)C(=O)N(c2cc(C)c(=O)n(C)c2)[C@@H]1c1ccc(Cl)cc1 [Example 2] | – | 22 | >10000 | 121
COc1ncc(-n2nc(C)c3c2C(c2ccc(Cl)cc2)N(c2cc(Cl)c(=O)n(C)c2)C3=O)cn1 (stereo not drawn) [Example 8a, 5-(5-chloro-1-methyl-6-oxo-1,6-dihydropyridin-3-yl)-6-(4-chlorophenyl)-1-(2-methoxypyrimidin-5-yl)-3-methyl-5,6-dihydropyrrolo[3,4-c]pyrazol-4(1H)-one] | 991 | 120 | >10000 | –
